The subject of one data set is LNCaP cells. Kind of data set: MTS assay, growth inhibition of HS cancer cells. It counts as cell-based. The note with it: FIG. 2. The method, then: The biological activity of the compound of formula II was measured by secreted levels of prostate specific antigen (PSA). It is well established that PSA levels are indicators of AR activities in prostate cancer. […] After 5 days of incubation, secreted PSA levels were assayed using PSA ELISA kits (American Qualex, San Clemente, Calif.) (See FIG. 1 and FIG. 3). The MTS assay was also used to examine the growth inhibition of the compounds of formula II (See FIG. 2).
In general terms: Tetrazolium dyes change colour on reduction, which living cells bring about.

Data set [1] is described as follows: Suspension stability of oral formulation (DMSO/CMC/Tween 80/water). The data set is classed as physicochemical. The note with it: oral formulation: DMSO, CMC, Tween 80, water; about 1.5 mg/mL. As to the method:
In an embodiment, the compound is dissolved in 100% DMSO.
Additional chemicals can be added, such as a carboxymethylcellulose, a polysorbate, or water. […] The solution is mechanically homogenized for at least 30 seconds.
That is, more than 10% DMSO was not required.

A short description of data set [2]: Stability of the compounds in vivo with ethanol as solvent. The note with it: mice. From the text:
(§1) When administered to mice, hardening of the skin and skin irritation around the injection site was observed, and this was attributed to the use of DMSO.

A further data set deals with LNCaP-AR tumors. Kind of data set: LNCaP-AR xenograft tumor growth in SCID mice. It counts as in vivo. The note with it: for effect on tumors in an in vivo assay: administered as described (iv or oral formulation); for effect on tumor: daily dose of 1 mg/kg; for effect on tumor / tumor cytotoxicity / tumor growth: SCID mice; for tumor cytotoxicity: daily dose of 25-50 mg/kg; for tumor growth: daily oral dose of 10 mg/kg. The method, then:
All animal experiments were performed in compliance with the guidelines of the Animal Research Committee of the University of California at Los Angeles. Animals were bought from Taconic and maintained in a laminar flow tower in a defined flora colony. LNCaP-AR and LNCaP-vector cells were maintained in RPMI medium supplemented with 10% FBS. 10^6 cells in 100 μl of 1:1 Matrigel to RPMI medium were injected subcutaneously into the flanks of intact or castrated male SCID mice. Tumor size was measured weekly in three dimensions (length×width×depth) using calipers. Mice were randomized to treatment groups when tumor size reached approximately 100 mm^3. Drugs were given orally everyday at the dose of 10 mg/kg.
Other doses were also tried.
Prostate cancer cell lines were used for xenografts. For example, a LNCaP xenograft, LAPC4 xenograft, LAPC9 xenograft, and xenografts of the hormone refractory counterparts of these cell lines were made. Other cell lines included V-cap, CWR22 and LAPC4 cell lines. Two cell lines that over express the androgen receptor were generated, LNCaP AR and LAPC4 AR. […] Under androgen ablation, the LNCaP AR and LAPC4 AR lines continued to grow, thus behaving like hormone refractory cells.
CB17 SCID mice were used in the study.
Injections were made subcutaneously on the right flank of the mouse. […] In addition, because of the usage of Matrigel, injection of no more than 200 μl was found appropriate. Injection of 100-200 μl was found appropriate. Injecting too large a volume created leakage upon needle withdrawal.

The next data set is described as follows: Solubility in ethanol. The data set is classed as physicochemical.
Excerpt: as §1

Data set [3] is described as follows: Stability of intravenous formulation (DMSO/PBS solution) at room temperature. The data set is classed as physicochemical. The note with it: 10-25% DMSO, balance PBS. As to the method:
A compound presently disclosed, for example, compound A51 or A52, can be in a formulation suitable for intravenous dosing. In an embodiment, the compound is dissolved in from about 10% to about 25% dimethylsulfoxide (DMSO). 1× phosphate buffered saline (PBS) is then mixed into the solution as the balance, and the solution is sonicated with a water bath sonicator until it is homogeneous.
At a compound concentration of 1.5 mg/mL, 5 minutes of sonication may be sufficient to dissolve the compound. At a compound concentration of 2 mg/ml, more than 5 minutes of sonication may be required to dissolve the compound and a polyethylene glcyol can be added to keep the compound in suspension. For example, 5 to 40% PEG-400 (a polyethylene glycol), such as, 5-10% PEG-400, can be added.

The target of data set [4] is T1, androgen receptor (AR) (Homo sapiens, UniProt P10275, T878A).
T1 construct: endogenous in cells; host or cells: LNCaP cells
T1 sequence (P10275 1-920 T878A): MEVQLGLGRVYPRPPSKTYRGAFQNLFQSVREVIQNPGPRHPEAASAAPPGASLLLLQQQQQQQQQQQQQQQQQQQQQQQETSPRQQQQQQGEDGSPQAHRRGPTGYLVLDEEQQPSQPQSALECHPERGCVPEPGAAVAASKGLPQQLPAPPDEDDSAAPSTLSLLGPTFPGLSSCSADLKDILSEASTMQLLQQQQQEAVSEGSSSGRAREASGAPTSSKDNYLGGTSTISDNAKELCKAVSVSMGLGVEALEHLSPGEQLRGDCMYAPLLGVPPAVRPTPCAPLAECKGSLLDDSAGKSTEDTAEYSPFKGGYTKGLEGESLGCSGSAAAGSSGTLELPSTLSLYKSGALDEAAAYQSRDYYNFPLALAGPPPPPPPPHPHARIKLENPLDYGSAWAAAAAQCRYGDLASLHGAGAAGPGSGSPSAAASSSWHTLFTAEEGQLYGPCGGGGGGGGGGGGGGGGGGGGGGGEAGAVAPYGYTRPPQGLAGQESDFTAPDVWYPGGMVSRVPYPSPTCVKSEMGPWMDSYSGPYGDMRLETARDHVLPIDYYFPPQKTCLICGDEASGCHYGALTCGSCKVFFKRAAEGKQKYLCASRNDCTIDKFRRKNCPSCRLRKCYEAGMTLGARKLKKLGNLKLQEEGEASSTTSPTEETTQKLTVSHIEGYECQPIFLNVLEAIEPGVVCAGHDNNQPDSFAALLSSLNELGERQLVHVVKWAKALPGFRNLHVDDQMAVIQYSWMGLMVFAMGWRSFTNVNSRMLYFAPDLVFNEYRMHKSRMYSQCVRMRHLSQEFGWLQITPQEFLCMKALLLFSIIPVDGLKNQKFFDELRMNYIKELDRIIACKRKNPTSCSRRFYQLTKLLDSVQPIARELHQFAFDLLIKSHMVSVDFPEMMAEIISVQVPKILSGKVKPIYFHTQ
Kind of data set: Secreted PSA induced by R1881 in hormone sensitive (HS) LNCaP cells (PSA ELISA). The data set is classed as cell-based. The note with it: FIG. 1, R1881, 5 days incubation. (In general: An ELISA detects its analyte on a solid surface through an enzyme-linked reagent.)
Procedure: (§2) The biological activity of the compound of formula II was measured by secreted levels of prostate specific antigen (PSA). […] LNCaP cells (or LNCaP/AR cells) were maintained in Iscove's medium containing 10% FBS. Five days prior to drug treatment, the cells were grown in Iscove's medium containing 10% CS-FBS to deprive of androgens.

The test system of data set [5] is androgen receptor (AR). In words: Secreted PSA induced by R1881 in hormone refractory (HR) LNCaP/AR cells (PSA ELISA). The data set is classed as cell-based. The note with it: FIG. 3, R1881, 5 days incubation.
Procedure: as §2

As to `CNC(=O)c1ccc(N2C(=S)N(c3cnc(C#N)c(C(F)(F)F)c3)C(=O)C23CCC3)cc1F` [A52, 4-[7-(6-cyano-5-trifluoromethylpyridin-3-yl)-8-oxo-6-thioxo-5,7-diazaspiro[3,4]oct-5-yl]-2-fluoro-N-methylbenzamide], the “antagonist effect on HS cancer cells (MTS growth inhibition)” value in the data set on LNCaP cells was “antagonist effect”. Besides, the “time the compound stays in suspension” value in data set [1] was “only a couple of hours”. Besides, in data set [2], the “effect of ethanol on stability of the compounds in vivo” value is “reduce the stability”. The Luciferase activity result in the data set with LNCaP-AR tumors (FIG. 6, after 17 days of treatment) is given as “disappearance of Luciferase activity”. In the data set with LNCaP-AR tumors, the “effect on tumors in an in vivo assay” value is recorded as “beneficial effect on tumors”, the effect on tumor entry is recorded as “mild effect”, the tumor cytotoxicity result is listed as “some tumor cytotoxicity” and the tumor growth entry is listed as “completely retard tumor growth”. For the same molecule, in the data set “Solubility in ethanol”, the solubility in ethanol entry was “soluble in ethanol”. The stability of solution entry in data set [3] is “stable at room temperature for at least a week”.

As to `Cc1ccc(N2C(=S)N(c3cnc(C#N)c(C(F)(F)F)c3)C(=O)C23CCC3)cc1` [A51, 5-(8-oxo-6-thioxo-5-(4-methylphenyl)-5,7-diazaspiro[3.4]oct-7yl)-3-trifluoromethylpyridine-2-carbonitrile], the “antagonist effect on HS cancer cells (MTS growth inhibition)” value in the data set on LNCaP cells was “antagonist effect”. Moreover, the “time the compound stays in suspension” value in data set [1] is given as “only a couple of hours”. The “effect of ethanol on stability of the compounds in vivo” value in data set [2] is given as “reduce the stability”. Moreover, in the data set on LNCaP-AR tumors, the “effect on tumors in an in vivo assay” value is reported as “beneficial effect on tumors”, the effect on tumor entry is given as “mild effect”, the tumor cytotoxicity result is reported as “some tumor cytotoxicity” and the tumor growth result is “completely retard tumor growth”. Moreover, the “antagonist effect on HS cancer cells (secreted PSA)” value on androgen receptor (AR) [4] is “antagonist effect”. Besides, the solubility in ethanol result in the data set “Solubility in ethanol” was “soluble in ethanol”. Further, the stability of solution result in data set [3] is “stable at room temperature for at least a week”. Also, the “antagonist effect on HR cancer cells (secreted PSA)” value in the data set on androgen receptor (AR) [5] is “antagonist effect”.

Source of the values: patent publication US10857139B2, “Substituted diazaspiroalkanes as androgen receptor modulators” (The Regents of the University of California, priority 2006, dated 2020).
